One assay deals with 16S A site 27mer RNA. Briefly: ESI-FTICR mass spectrometric (MASS) binding assay, 16S A-site 27-mer RNA model. Also noted: species or system prokaryotic. On the procedure:
The ESI-FTICR mass spectrum depicted in FIG. 26 was acquired from a […] mixture of untagged 16S and tagged 18S in the presence of an equimolar mixture of five aminoglycosides. It is to be understood that other biomolecules may be used in place of the aminoglycosides. The aminoglycosides have been selected from two classes of 2-deoxystreptamines: 4,5-disubstituted (paromomycin, and lividomycin), and 4,6-disubstituted (tobramycin, sisomicin, and bekanamycin), present at 500 nM each. Complexes corresponding to 1:1 binding of individual aminoglycosides were observed between 16S and all members of the aminoglycoside mixture, with the apparent affinities estimated from the abundances of the respective complexes differing substantially. Signal intensities from the complexes with paromomycin (m/z 1925.572) and lividomycin (m/z 1954.790) are consistent with MS-measured dissociation constants of 110 nM and 28 nM, respectively. The intensities of 16S complexes with tobramycin (m/z 1895.960), bekanamycin (m/z 1899.171), and sisomicin (m/z 1891.972) were reduced, consistent with solution dissociation constants of […]. Wang, et al., Biochemistry, 1997, 36, 768-779. […] The spectrum is calibrated using multiple isotope peaks of the (M-5H^+)^5− and (M-4H^+)^4− charge states of the free RNA as internal mass standards which brackets the m/z range in which complexes are observed. The average mass measurement error obtained for the complexes in FIG. 26 is 2.1 ppm when m/z differences are measured between the most abundant (4 ^13C) isotope peak of 16S and each complex. This post calibration scheme is easily automated which enables rapid, high precision mass measurements of affinity selected ligands against multiple targets in a high throughput mode.
A preferred first step of MASS screening involves mixing the RNA target (or targets) with a combinatorial library of ligands designed to bind to a specific site on the target molecule(s). Specific noncovalent complexes formed in solution between the target(s) and any library members are transferred into the gas phase and ionized by ESI. As described herein, from the measured mass difference between the complex and the free target, the identity of the binding ligand can be determined. The dissociation constant of the complex can be determined in two ways: if a ligand with a known binding affinity for the target is available, a relative Kd can be measured by using the known ligand as an internal control and measuring the abundance of the unknown complex to the abundance of the control, alternatively, if no internal control is available, Kd's can be determined by making a series of measurements at different ligand concentrations and deriving a Kd value from the “titration” curve.
Electrospray ionization Fourier transform ion cyclotron resonance mass spectrometry was performed on a solution containing […] 16S RNA (the 27-mer construct shown in FIG. 24) and 500 nM paromomycin is depicted in FIG. 13. A 1:1 complex was observed between the paromomycin and the RNA consistent with specific aminoglycoside binding at the A-site. The insets show the measured and calculated isotope envelopes of the (M-5H+)5− species of the free RNA and the RNA-paromomycin complex. High precision mass measurements were acquired using isotope peaks of the (M-5H+)^5− and (M-4H^+)^4− charge states of the free RNA as internal mass standards and measuring the m/z difference between the free and bound RNA.
ESI-MS measurements of a solution containing a fixed concentration of RNA at different concentrations of ligand were obtained. By measuring the ratio of bound:unbound RNA at varying ligand concentrations, the Kd was determined by 1/slope of the “titration curve”. The MS derived value of 110 nM is in good agreement with previously reported literature value of 200 nM. […]

Assay [1] concerns the target prokaryotic 16S rRNA (the A-site). As to conditions: cited from earlier work.

Read-outs that look alike come from different tables or passages of the source.

Regarding `NC[C@@H]1O[C@H](O[C@H]2[C@@H](O)[C@H](O[C@@H]3[C@@H](O)[C@H](N)C[C@H](N)[C@H]3O[C@H]3O[C@H](CO)[C@@H](O)[C@H](O)[C@H]3N)O[C@@H]2CO)[C@H](N)[C@@H](O)[C@@H]1O` [paromomycin], the Kd is 0.11 µM on 16S A site 27mer RNA (ESI-FTICR MS, 16S A site 27mer, read-out: MS-measured dissociation constant (KD)); about 0.2 µM in assay [1] (16S A-site, previously reported, listed as Paromomycin, read-out: literature / solution KD); 0.2 µM in assay [1] (16S A-site, previously reported, read-out: literature / solution KD); about 0.2 µM in assay [1] (Recht 1996, Wong 1998, Wang 1997, read-out: reported kD values); about 1 µM in assay [1] (test 27-mer RNA, known from other experiments or literature, read-out: binding affinity). The “complexes observed with 16S (in words)” value in the assay on 16S A site 27mer RNA (aminoglycosides 500 nM each, mixture with untagged 16S and tagged 18S) was 1:1 complex and High affinity complexes.
